Measured values from patent US20070004634A1 (Novo Nordisk A/S, priority 1998, published 2007).
No end group written: not given here.

Experiments:
IGF-1R = IGF-1R (Homo sapiens, UniProt P08069); experiment: Phage ELISA, binding of phage clones to IGF-1R (ratio over background); conditions: ratio of IGF-1R divided by ratio of IR
Experimental: (§1) HIT indicates binder; CAND indicates binder candidate; LDH indicates binding to lactate dehydrogenase (negative control); Sp/Irr indicates the ratio of specific binding over non-specific binding.
(§2) Sp/Irr=the ratio of specific binding over non-specific binding; LDH=lactate dehydrogenase (negative control).
(§3) For phage pools, cells from frozen stocks were grown and phage were prepared as described above. For analysis of individual clones, colonies were picked and phage prepared as described above. Subsequent steps were the same for pooled and clonal phage. Microtiter wells were coated and blocked as described above. […] Phage resuspended in MPBS (PBS containing 2% non-fat milk) were added to wells (100 μl/well) and incubated at room temperature for 1 h. The phage solution was then removed, and the wells were washed three times with PBS at room temperature.
(§4) Anti-M13 antibody conjugated to horseradish peroxidase (Pharmacia Biotech) was diluted 1:3000 in MPBS and added to each well (100 μl/well). Incubation was for another hour at room temperature, followed by PBS washes as described. Color was developed by addition of ABTS solution (100 μl/well; Boehringer). […] Data points were averaged after subtraction of appropriate blanks. A clone was considered “positive” if the A405 of the well was ≧2-fold over background.

IR = IR (Homo sapiens, UniProt P06213); experiment: Phage ELISA, binding of phage clones to IR (ratio over background); conditions: ratio of IR divided by ratio of IGF-1R
Experimental: as §1, §2, §3, §4

Comparisons IGF-1R/IR (IGF-1R)	Comparisons IR/IGF-1R (IR)	Substance
1.4	0.7	AETSAQVGWQRLWSVWPGDHWSTLDPFYHKLSELLRESGA [Peptide B6L-3-G5-IR]
3.4	0.3	AETSVQVGWIRLQSVWPGEHWNTVDPFYHKLSELLRGSGA [Peptide B6L-4-D7-IR]
1.4	0.7	AGSVTSFYDAMEQLVATGTSA [20E2A-3-A4-IGFR]
1.8	0.6	AGTPAQVG*NRLWSVWPGEHWNTVDPFYNKLSELLRESGA (AGTPAQVGXNRLWSVWPGEHWNTVDPFYNKLSELLRESGA; not fully specified; X: residue not identified in the source; ends and bridges not checked) [Peptide B6L-4-A7-IR]
3.0	0.3	AICDAGFHEHFYDWFALQVSDCGRQS [H2CA-2-B11-IGFR]
5.1	0.2	APDPSDFQEIFYDWFVRQVSRMPGGG [H2CA-1-A3-IGFR]
7.8	0.1	AQPCGGFYGLLEQLVGRSVCD [20E2B-4-F10-IGFR]
6.2		ASSASGFYELLQRLAGLGLEV [20E2B-3-C4-IGFR]
6.4	0.2	AVRATRFDEAFYDWFVRQISDGQGNK [H2CA-4-F6-IGFR]
20.5	0.0	CCTTEMVVMDARDDPFYHKLSELVTGG [Peptide B6Hα-1-B5-IR]
1.9	0.5	CGAKMTGTPNDPFYHKLSELLQRG [Peptide B6Hα-3-E6-IR]
7.5	0.1	CMM.DGFYAGLGCLLTAGEGR (CMMXDGFYAGLGCLLTAGEGR; not fully specified; printed as CMM.DGFYAGLGCLLTAGEGR; X: residue not identified in the source; cysteine pairing not given here) [20E2B-3-C11-IGFR]
1.8	0.5	CSMAAVAEAGDDDDPFYHKLSELCQGS [Peptide B6Hα-3-F1-IR]
10.3	0.1	DRAFYNGLRDLVGAVYGAWD [R20α-4-20C11-IR]
14.1	0.1	DRDFCRFYERLTALVGGQVDGGWPC [20C-3-F6-IGFR]
6.9	0.1	DSVGDNFYQLLESLVGGHGVG [20E2B-3-D6-IGFR]
2.8	0.4	EAASLGSQDRNFYDWFVRQVV [Peptide A6S-2-D11-IR]
7.1	0.1	EGSGFYGYFFSLLGLQG [NNRPγ-4-A9-IR]
21.8	<0.1	FFYDCLAALLQGVARYHDLCAVEIT [20C-4-C7-IGFR]
6.0	0.2	FFYRCLSRLLGGQLGSRLGLSCIGD [20C-3-E4-IGFR]
2.1	0.5	FRTLAAQHDSFYDWFDRQVSGAAGER [H2CA-3-C11-IGFR]
12.9	0.1	FYDAIDQLVRGSARAGGTRD [R20α-3-20E2-IR]
3.8	0.3	FYVQQWGHENFYDWFDRQVSQSGGAG [H2CA-4-F1-IGFR]
3.5	0.3	GAPVDQLHEDFYDWFVRQVSQAATG [H2CA-2-B2-IGFR]

Comparisons IGF-1R/IR (IGF-1R)	Comparisons IR/IGF-1R (IR)	Substance
4.3	0.2	GCAVVEEAERSRGDPFYHKLSELIQGC [Peptide B6Hα-3-E7-IR]
4.2	0.2	GCEVIVEEGDSADPFYHKLSELCQGS [Peptide B6Hα-2-D1-IR]
2.9	0.3	GCITAENGAGDPFYHKLSELGGCS [Peptide B6Hα-1-B3-IR]
4.6	0.2	GCVVEWQKWHGASDPFYHKLSELGGCS [B6Hα-3-F10-IR]
4.1	0.2	GFREGNFYEWFQAQVT [Peptide E4Dα-4-H2-IR]
3.4	0.3	GFREGSFYDWFQAQVT [E4Dα-2-D11-IR]
11.3	0.1	GGTEVDFYRALERLVRGQLGL [20E2B-3-D8-IGFR]
3.6	0.3	GGTKAVAKVGTRDDPFYHKLSELLQGS [Peptide B6Hα-4-G8-IR]
1.9	0.5	GHYFGSFYDAIDQLVAGMLPG [20E2A-3-A3-IGFR]
16.0	0.1	GIISQSCPESFYDWFAGQVSDPWWCW [H2CA-4-G9-IGFR]
13.1	0.1	GLDHSDAVGVHLGFAWPAQARGRWEAGGLEDTWAGYDWL [40F-4-B1-IGFR]
13.8	0.1	GNGDGMFYQLLSLLVGRDMHV [20E2B-3-C2-IGFR]
4.4	0.2	GRTMAVMAAGGPDDPFYHKLSELVQGG [Peptide B6Hα-2-D6-IR]
16.8	0.1	GVRAMSFYDALVSVLGLGPSG [20E2B-1-A6-IGFR]
2.2	0.5	HLADGQFHEKFYDWFERQISSRCNDC [H2CA-3-E11-IGFR]
7.4	0.1	ICTGQGFYQVLCGLLRGTSAR [20E2B-2-B3-IGFR]
6.0	0.2	IIGGFYSYFNSVLRLGT [NNRPγ-4-A1-IR]
11.7	0.1	IQQELTFYDLLHRLVRSELGS [20E2B-3-D2-IGFR]
13.9	0.1	KLHNLMFYYGLQRLVWGAGLG [20E2B-4-H3-IGFR]
7.6	0.1	LGVTDGFYAALGYLIHGVGQF [20E2B-3-D11-IGFR]
2.9	0.3	LGYQEPFQQNFYDWFVRQVSGAENAG [H2CA-3-E8-IGFR]
15.5	0.1	LKDGFYDYFWQRLHLGS [NNRPγ-4-B11-IR]
11.1	0.1	LRIANLFYQRLWDLAFGGGG [20E2B-3-E8-IFGR]
3.7	0.3	LRRQAPVEENFYDWFVRQVSGDRVGG [H2CA-3-D7-IGFR]

Comparisons IGF-1R/IR (IGF-1R)	Comparisons IR/IGF-1R (IR)	Substance
13.1	0.1	LSCLAYSRHGIWRPSTDLGLGRSVGEGSVSTRWRGYDWFE [40F-4-D1-IGFR]
6.7	0.1	LSSDGQFYRALNLLLQGSAGR [20E2B-2-B7-IGFR]
3.9	0.3	LSVALSFYDALGQLVAGEGRW [20E2A-3-A12-IGFR]
3.9	0.3	MMVVDGFYDALHQLVVAQSLG [20E2A-3-D10-IGFR]
2.6	0.4	MNVFVSFYDAIDQLVCQRIGC [20E2A-4-G11-IGFR]
9.6	0.1	NSRDGGFYLQLERLLGFPVTG [20E2B-3-D4-IGFR]
4.0	0.3	NYRRQVFNGNFYDWFDRQVFSLVTPG [H2CA-3-D8-IGFR]
5.9	0.2	PAGPCGFYCGLGLLLHGDQSP [20E2B-4-H8-IGFR]
13.1	0.1	PDLHKGFYAQLAQLIRGQLLS [20E2B-3-E3-IGFR]
8.1	0.1	PGTDLGFYQALRCVVIQGACD [20E2B-2-B2-IGFR]
3.6	0.3	PPLASDLDVQFYGWFVQQVSPPGRGG [H2CA-2-B3-IGFR]
9.7	0.1	PVGVQGFYEGLSRLVLGRGGW [20E2B-4-F8-IGFR]
4.2	0.2	QAVQPGFHEEFYDWFVRQVSTGVGGG [H2CA-4-H4-IGFR]
7.6	0.1	QFYGCLLDLSLGVPSFGWRRRCITA [20C-3-A4-IGFR]
14.6	0.1	QGGSASFYDAIDRLLRMRIGG [20E2A-4-F11-IGFR]
7.3	0.1	QGNVLDFYGWIGRLLAKQGSD [20E2B-3-D12-IGFR]
8.9	0.1	QPAPDGFYSALMKLIGRGGVS [20E2B-3-C8-IGFR]
7.7	0.1	QPDHSYFYSLLQELVGSEERL [20E2B-4-F9-IGFR]
2.0	0.5	QSGSGDFYDWLSRLIRGNGDG [20E2Bβ-3-C7-IR]
4.0	0.3	QSPVGSSHEDFYDWFFRQVAQSGAHQ [H2CA-3-D6-IGFR]
4.2	0.2	RAGSSDFHEDFYEWFVRQVSLSLKGK [H2CA-2-B9-IGFR]
14.2	0.1	RCEEKQAEVGPSSDPFYHKMSELLGCR [Peptide B6Hα-3-E9-IR]
2.9	0.3	RCGDEEGWQENRRDDPFYHKLSELFGGC [Peptide B6Hα-3-E5-IR]
14.6		RGCNDDGGKGWSDDPFYHKLSELICGG [Peptide B6Hα-1-A2-IR]
